{"source": "patent US20120258202A1", "about": "“Compositions and Methods for an Appetite Suppressant and a Nutrient Absorption Blocker with Treatment To Raise Metabolic Rate” (priority 2011, published 2012)", "origin": "cited, not measured here", "key": {"[1]": {"conditions": "after ORLISTAT was stopped"}, "[2]": {"conditions": "laboratory animals"}, "[3]": {"conditions": "people taking sibutramine; control 10.0%"}}}
{"smiles": "CNCCC(Oc1ccc(C(F)(F)F)cc1)c1ccccc1", "note": "(stereo not drawn) [fluoxetine, Fluoxetine]", "values": [{"measurement": "interruption of the treatment due to anxiety, insomnia, and nervousness (each)", "setting": "in vivo", "result": "1-2%"}, {"measurement": "anorexia", "setting": "prescribing information, placebo 3%", "result": 10, "unit": "%"}, {"measurement": "somnolence", "setting": "prescribing information, placebo 5%", "result": 12, "unit": "%"}, {"measurement": "anxiety", "setting": "prescribing information, placebo 6%", "result": 12, "unit": "%"}, {"measurement": "nausea", "setting": "prescribing information, placebo 9%", "result": 22, "unit": "%"}, {"measurement": "insomnia", "setting": "prescribing information, placebo 10%", "result": 19, "unit": "%"}]}
{"smiles": "CCCCCCCCCCC[C@@H](C[C@@H]1OC(=O)[C@H]1CCCCCC)OC(=O)[C@H](CC(C)C)NC=O", "note": "[orlistat, tetrahydrolipstatin]", "values": [{"measurement": "weight regained after drug was stopped, of the weight lost", "setting": "[1]", "result": "up to 35%"}]}
{"smiles": "CN[C@H]1CC[C@@H](c2ccc(Cl)c(Cl)c2)c2ccccc21", "note": "[sertraline, Sertraline]", "values": [{"measurement": "body weight", "setting": "[2]", "result": "resulted in weight loss"}]}
{"smiles": "CC(C)CC(N(C)C)C1(c2ccc(Cl)cc2)CCC1", "note": "(stereo not drawn) [sibutramine, Sibutramine]", "values": [{"measurement": "cardiovascular events", "setting": "[3]", "result": 11.4, "unit": "%"}]}
